Measurements taken from patent US10072304B2, “Nuclear localization of Src-family tyrosine kinases is required for growth factor-induced euchromatinization” (National University Corporation Chiba University, priority 2009, dated 2018).

Experiments:
COS-1 cells [1] = experiment: Quantitation of chromatin condensation levels (S.D. value of PI intensity per pixel) in COS-1 cells; assay type: cell-based, monkey
Protocol: COS-1, HeLa cells (Japanese Collection of Research Bioresources, Osaka), MCF-7 (provided by H. Saya), A431 (provided by M. N. Fukuda), HEK293 (provided by […]), HCT116 (provided by T. Tomonaga), and SYF ([37]; provided by M. Okada and S. Nada) cells were cultured in Iscove's modified DME containing 5% fetal bovine serum (FBS). Cells were transiently transfected with 0.5 μg of plasmid vector using Trans IT Transfection reagent (Mirus) or with 1 μg of plasmid vector using linear polyethylenimine (25 kDa) (Polyscience, Inc.). For growth factor stimulation, COS-1 cells were starved under low serum conditions (0.05% FBS) for 24 h and restimulated with serum (5% FBS). For stimulation of endogenous SFKs, cells were treated with 3 mM Na3VO4 for 3 h, and SFK-mediated tyrosine phosphorylation was verified by treatment with 10 μM PP2 (SFK inhibitor; Calbiochem) or 100 nM wortmannin (PI3K inhibitor; Alomone Labs) for 21 h before Na3VO4 treatment. Na3VO4 was dissolved at 500 mM in 500 mM unbuffered HEPES before use. For preparation of stable transfectant clones, SYF cells transfected with c-Src-wt or Lyn-wt were selected in 333 μg/mL Zeocin (Invitrogen), and COS-1 cells were transfected with the BOSH2BGFP-N1 vector, which encodes GFP-tagged histone H2B ([39,40]; provided by H. Saya), were selected in 3 μg/mL blasticidin. Confocal and Nomarski differential-interference-contrast images were obtained using a Fluoview FV500 confocal laser scanning microscope with a 40×1.00 NA oil and a 100×1.35 NA oil immersion objective (Olympus, Tokyo) and an LSM 510 confocal laser scanning microscope with a 63×1.40 NA oil immersion objective (Zeiss), as described. One planar (xy) section slice (0.6-μm thickness) is shown in all experiments. In brief, cells were fixed with 4% paraformaldehyde for 20 min, and permeabilized in phosphate-buffered saline (PBS) containing 0.1% saponin and 3% bovine serum albumin at room temperature. Cells were subsequently reacted with an appropriate primary antibody for 1 h, washed with PBS containing 0.1% saponin, stained with FITC- or TRITC-conjugated secondary antibody for 1 h. […] To ensure no bleed-through from the fluorescein signal into the red channel, fluorescein and rhodamine were independently excited at 488 nm and 543 nm, respectively. PI was excited at 488 or 543 nm. Emission signals were detected between 505 and 525 nm for fluorescein, at more than 560 nm for rhodamine and more than 610 nm for PI [44]. Composite figures were prepared using Photoshop 5.0 and Illustrator 9.0 software (Adobe). For nuclear staining with anti-pTyr, anti-ATF-2 […]/71, and anti-histone H3K4me3 antibodies, cells were in situ extracted with 0.5% Triton X-100 at 4° C. for 3 min before fixation with 4% paraformaldehyde. For HP1α staining, cells were fixed in 100% methanol at -20° C. for 10 min followed by permeabilization for 30 min in PBS containing 0.1% Triton X-100 at room temperature. Cells were reacted with anti-HP1α antibody for 1 h at room temperature, washed with PBS four times, and stained with secondary antibody for 1 h. Fluorescence intensity plots of anti-histone H3K4me3, anti-ATF-2 […]/71 and anti-HP1α antibody and PI staining (see FIGS. 18B, 19B, and 20B, respectively) were generated using Fluoview version 4.3 software (Olympus, Tokyo). For detection of the kinase activity of nuclear SFKs, purified nuclei suspended in kinase buffer (50 mM HEPES-NaOH, pH7.4, 5 mM MgCl2, 5 mM MnCl2 and 0.1 mM Na3VO4) were preincubated with or without 10 μM PP2 at 30° C. for 30 min, and subsequently incubated with 5 or 10 μM ATP at 30° C. for 30 min, followed by cytocentrifugation at 200×g for 5 min and fixation with 4% paraformaldehyde. DNA was stained with 20 μg/mL PI and 200 μg/mL RNase A for 30 min. Mean fluorescence intensity of tyrosine-phosphorylated proteins in the nucleus was measured using the ImageJ software (National Institutes of Health). Confocal images of PI-stained nuclei were obtained as described above. […]

COS-1 cells [2] = experiment: Cell cycle analysis: DNA content by flow cytometry in COS-1 cells; assay type: cell-based, monkey; settings: H2O2 at 1, 10 and 20 mM for 1 h, FIGS. 11A-11D
Protocol: To obtain S- and G2-phase cells, COS-1 cells grown in Iscove's modified DME containing 5% FBS were blocked at S phase by exposure to 3 mM thymidine for 18 h. Cells were washed free of thymidine with PBS, and cultured for further 2 or 5 h. Cells were detached by trypsinization, fixed in 1.5% paraformaldehyde at 4° C. for 1 h, and then permeabilized with 70% ethanol at −30° C. for more than 1 h. Fixed cells were washed twice with PBS containing 3% FBS, and treated with 200 μg/ml RNase A and 50 μg/ml PI at 37° C. for 30 min to stain DNA. Cell cycle phase was analyzed by flow cytometry using a MoFlo cell sorter equipped with a 488-nm argon laser (Beckman Coulter). Cells transfected with Lyn-HA or NLS-Lyn-HA were cultured for 36 h, fixed and permeabilized as described above. Fixed cells were washed with PBS containing 3% FBS, stained with anti-HA antibody for 1 h, washed with PBS and stained with FITC-conjugated secondary antibody for 1 h. After DNA staining with PI as described above, cell cycle phase was analyzed in cells expressing Lyn-HA or NLS-Lyn-HA.

| Structure (SMILES) | basal levels of chromatin condensation (COS-1 cells [1]; cells not specified, U0126 concentration not given, data not shown) | apoptotic SubG1 cells (histograms of DNA content) (COS-1 cells [2]) | level of DNA condensation (S.D. value) (COS-1 cells [1]; COS-1, H2O2 at 1, 10 and 20 mM for 1 h, FIG. 12) |
| --- | --- | --- | --- |
| N#CC(=C(/N)Sc1ccccc1N)/C(C#N)=C(\N)Sc1ccccc1N [U0126] | slightly decreased |  |  |
| OO [H2O2, hydrogen peroxide] |  | induction of apoptotic SubG1 cells in a dose-dependent manner | corresponded to the degree of apoptosis |
